Experimental data from PubChem BioAssay (NCI).
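Test compounds were applied to cells in 96-well plates for 48 hours at 5 doses. Definition used: TGI = concentration required for complete inhibition of growth.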

Assays:
Assay in all cases: DTP human tumour cell line panel, 48 h
MDA-MB-435 = test system: MDA-MB-435
TK-10 renal = test system: TK-10 renal
MALME-3M melanoma = test system: MALME-3M melanoma
SNB-19 CNS = test system: SNB-19 CNS
SK-MEL-5 melanoma = test system: SK-MEL-5 melanoma
COLO 205 colon = test system: COLO 205 colon
OVCAR-5 ovarian = test system: OVCAR-5 ovarian
T-47D breast = test system: T-47D breast
SW-620 colon = test system: SW-620 colon
DU-145 prostate = test system: DU-145 prostate
786-0 renal = test system: 786-0 renal
SF-295 CNS = test system: SF-295 CNS
HCC-2998 colon = test system: HCC-2998 colon
SN12C renal = test system: SN12C renal
NCI-H23 lung = test system: NCI-H23 lung
CAKI-1 renal = test system: CAKI-1 renal
IGROV1 ovarian = test system: IGROV1 ovarian
KM12 colon = test system: KM12 colon
NCI-H522 lung = test system: NCI-H522 lung

Structure (SMILES) | TGI (MDA-MB-435) [µM] | TGI (TK-10 renal) [µM] | TGI (MALME-3M melanoma) [µM] | TGI (SNB-19 CNS) [µM] | TGI (SK-MEL-5 melanoma) [µM] | TGI (COLO 205 colon) [µM] | TGI (OVCAR-5 ovarian) [µM] | TGI (T-47D breast) [µM] | TGI (SW-620 colon) [µM] | TGI (DU-145 prostate) [µM] | TGI (786-0 renal) [µM] | TGI (SF-295 CNS) [µM] | TGI (HCC-2998 colon) [µM] | TGI (SN12C renal) [µM] | TGI (NCI-H23 lung) [µM] | TGI (CAKI-1 renal) [µM] | TGI (IGROV1 ovarian) [µM] | TGI (KM12 colon) [µM] | TGI (NCI-H522 lung) [µM]
N#CC1Cc2cc3c(cc21)OCO3 (configuration not stated) | > 100 | > 100 | > 100 | > 100 | > 100 | > 100 | > 100 | > 100 | > 100 | > 100 | > 100 | > 100 | > 100 | > 100 | > 100 | > 100 | > 100 | > 100 | 
O=S(=O)(O)CCCC1S(=O)(=O)OCCOS1(=O)=O | > 100 | > 100 | > 100 | > 100 | > 100 | > 100 | > 100 | > 100 | > 100 | > 100 | > 100 | > 100 | > 100 |  | > 100 | > 100 | > 100 | > 100 | > 100
c1ccc2c(c1)Nc1ccccc1[P+]21c2ccccc2Nc2ccccc21 | 1.27 | 5.93 |  | 1.09 | 0.31 | 0.202 | 2.04 | 1.91 | 3.42 | 3.46 | 2.87 | 5.16 | 2.44 | 0.631 | 0.83 | 11.2 |  |  | 0.728
CCCN1CC=C(c2cc(C(=O)OCC)[nH]c2-c2cc(C)no2)C1=O | > 100 |  | > 100 | > 100 | > 100 | > 100 | > 100 | > 100 | > 100 | > 100 | > 100 | > 100 | > 100 | > 100 | > 100 | > 100 | > 100 | > 100 | 
CCOC(=O)C1C(c2ccc(OC)cc2)c2c([nH]n(-c3ccccc3)c2=O)CC1(O)OCC (configuration not stated) | > 100 | > 100 | > 100 |  | > 100 | > 100 | > 100 | > 100 | > 100 | > 100 | > 100 | > 100 | > 100 | > 100 | > 100 | > 100 | > 100 | > 100 | > 100
Cc1ccc(O)c(C(c2ccc([N+](=O)[O-])cc2)c2cc(C)ccc2O)c1 | 28.5 | 30.4 |  | 26.2 | > 100 | 44.1 | 28.9 | 34.7 | 32.1 | 27.4 | 44.5 | 31.3 | 9.66 | 27.3 | 21.5 | 28.6 | 25.2 | 20.7 | 28.6
O=C1Cc2c([nH]c3c(Cl)cccc23)-c2ccccc2N1 | > 100 | > 100 | > 100 | > 100 | > 100 | > 100 | > 100 | > 100 | > 100 | > 100 | > 100 | > 100 |  | > 100 | > 100 |  | > 100 | > 100 | > 100
Cn1c(-c2cccs2)cc(-c2ccccc2)c1-c1cccs1 | > 100 | > 100 |  | 47.5 | > 100 | > 100 | > 100 | > 100 | > 100 | > 100 | > 100 | > 100 | > 100 | > 100 | > 100 | > 100 | > 100 | > 100 | > 100
C=CCOC(=O)Cn1cc(C)c(=O)[nH]c1=O | > 100 | > 100 | > 100 | > 100 | > 100 | > 100 |  | > 100 | > 100 | > 100 | > 100 | > 100 | > 100 | > 100 | > 100 | > 100 | > 100 | > 100 | 
Cn1c(N)c(C(N)=O)[nH]c1=S | > 100 | > 100 | > 100 | > 100 | > 100 | > 100 | > 100 | > 100 | > 100 | > 100 | > 100 | > 100 | > 100 | > 100 | > 100 |  | > 100 | > 100 | > 100
N#CC(c1nc2ccccc2s1)c1ncnc(Cl)c1[N+](=O)[O-] (configuration not stated) | 83.2 | > 100 | 41.8 | > 100 | 30 | 29.8 | 91.7 | 86.9 | 35.5 | > 100 | 42.7 | > 100 |  | 41.9 | 32.7 | > 100 | 30.5 | > 100 | 33.5
n1onc2c1NC1Nc3nonc3NC1N2 (configuration not stated) | > 100 | > 100 |  | > 100 | > 100 | > 100 | > 100 | > 100 | > 100 | > 100 | > 100 | > 100 | > 100 | > 100 | > 100 | > 100 | > 100 | > 100 | > 100
Cn1ccc(C(=O)N2CCSC2=S)c(OCc2ccccc2)c1=O | > 100 | > 100 | > 100 | > 100 | > 100 | > 100 |  | > 100 | > 100 | > 100 | > 100 |  | > 100 | > 100 | > 100 | > 100 |  | > 100 | > 100
COCO[C@@H]1C[C@H]2C(=O)N(COC)c3ccccc3C(=O)N2C1 | > 100 | > 100 | > 100 | > 100 | > 100 | > 100 | > 100 | > 100 | > 100 | > 100 | > 100 | > 100 |  | > 100 | > 100 | > 100 | > 100 | > 100 | > 100
C1=Nc2ccc(cc2)N=Cc2ccc(cc2)OCc2cccc(n2)COc2ccc1cc2 | > 100 |  | > 100 | > 100 | > 100 | > 100 | > 100 | > 100 | > 100 | > 100 | > 100 | > 100 |  | > 100 | > 100 | > 100 | > 100 | > 100 | > 100
O=[N+]([O-])c1ccc(-c2nc3ccc([N+](=O)[O-])cc3[nH]2)cc1 | 89.5 | > 100 | 84.2 | > 100 | 44.9 | 28.2 |  | 61.7 | > 100 | > 100 | > 100 | 66.1 | > 100 | > 100 | 65.3 | > 100 | > 100 | > 100 | 88.4
CC(C)(C)n1c(=O)[nH]n(C2NN=Cc3cccc4cccc2c34)c1=O (configuration not stated) | > 100 | > 100 | > 100 | > 100 |  | 74.9 | > 100 | > 100 | > 100 | > 100 | > 100 |  | > 100 | > 100 | > 100 | > 100 |  | > 100 | 
O=C(N/N=C(/COc1ccc(Cl)cc1)N=Cc1cccnc1)c1ccncc1 | > 100 | > 100 | > 100 | > 100 |  | > 100 | > 100 | > 100 | > 100 | > 100 | > 100 | > 100 | > 100 | > 100 | > 100 | > 100 | > 100 | > 100 | 66.7
CC(C)(C)OC(=O)CC(NC(=O)OC(C)(C)C)C(=O)N[C@@H]1CCCC[C@H]1C(=O)OCc1ccccc1 (some centres not stated) | 92.2 | 79.6 | > 100 | 69.3 | 24.5 | 38.2 | > 100 | 59.3 | > 100 | 99.8 | > 100 | 70.2 | 64.7 | 48.7 | 85.3 | > 100 | > 100 | > 100 | 
Cc1ncc([N+](=O)[O-])n1CCN(C)C(=O)CCCn1ccnc1[N+](=O)[O-] | > 100 | > 100 | > 100 |  | > 100 | > 100 | > 100 | > 100 | > 100 | > 100 | > 100 | > 100 |  | > 100 | > 100 | > 100 | > 100 | > 100 | > 100
COc1ccc(N(CN2C(=O)CCC2C(=O)O)C(C)=O)cc1 (configuration not stated) | > 100 | > 100 | > 100 | > 100 | > 100 | > 100 | > 100 | > 100 | > 100 | > 100 | > 100 | > 100 | > 100 | > 100 | > 100 | > 100 |  | > 100 | > 100
N#Cc1c2c(c(Nc3cccc(C(F)(F)F)c3)n3c1nc1ccccc13)CCC2 | > 100 | > 100 | > 100 |  | > 100 | > 100 | > 100 | > 100 | > 100 | > 100 | > 100 | > 100 |  | > 100 | > 100 | > 100 |  | > 100 | > 100
COc1ccc(/C=C2\C(=O)N(C)C(=O)c3cc(OC)c(OC)cc32)cc1OC | > 100 | > 100 |  | > 100 | 89.8 | 47.9 | > 100 | > 100 | > 100 | > 100 | > 100 | 78.7 | > 100 | > 100 | > 100 | > 100 | > 100 |  | 36.4
S=c1nc(Cc2ccc(Cl)cc2)[nH][nH]1 | > 100 | > 100 | > 100 | > 100 | > 100 | > 100 | > 100 | 99.6 | > 100 | > 100 | > 100 | > 100 | > 100 | > 100 | > 100 | > 100 | > 100 | > 100 | 
CN(C)c1nc2oc(-c3ccccc3)c(-c3ccccc3)c2c2nncn12 | > 100 | > 100 |  | > 100 |  | > 100 | > 100 | > 100 | > 100 | > 100 | > 100 | > 100 | > 100 | > 100 | > 100 | > 100 | > 100 | > 100 | > 100
CCOc1ccc(Nc2nc3c(s2)C(=O)c2ccccc2C3=O)cc1 | 3.25 | 36.3 | 8.19 | 30.1 | 4.07 | 46 | 40 | 49.9 | 15.2 | 27.8 | 31.2 | 23.5 | 33.5 | 13.5 |  | 20.7 | 26.7 | 27.9 | 78.7
Cc1cc2c(cc1Cl)SC(c1ccccc1)C(=O)NS2(=O)=O (configuration not stated) | > 100 | > 100 |  |  | 48.8 |  | > 100 | 84.6 | > 100 | > 100 | > 100 | 95.6 | 70.8 |  | 56.2 | > 100 | > 100 | > 100 | 59.7
